Source: US8633308B2, “Compounds for preventing or treating viral infections and methods of use thereof” (The Governors of The University of Alberta, priority 2007, dated 2014)
Values joined by “and” are separate entries in the source; they are usually repeats but may differ in a detail not shown here. Equal entries are not always repeated. “Also recorded” adds a separate entry of the source. Where two headings read alike, the source gives them in different places.

Assays:
[1] = system: HSV-1 KOS; test: HSV-1 infectivity plaque assay, virions pretreated with compound, Vero cells; assay type: cell-based, herpes simplex virus type 1; conditions: for potency compared with dUY11: infections of cultured cells
[2] = system: Vero cells; test: Cytotoxic/cytostatic effects, trypan blue exclusion cell counts; conditions: for cytotoxicity (in words): cultured cells
[3] = system: HSV-1 KOS; test: HSV-1 infectivity, Vero cells pretreated with compound, untreated virions; assay type: cell-based, herpes simplex virus type 1; conditions: IC50 5.4 μM versus 20 nM
[4] = system: VSV; assay type: cell-based, vesicular stomatitis virus; conditions: virions pretreated 5 minutes at 37° C.; Vero cells; read-out: IC50, infectivity of VSV
[5] = system: HSV-1 KOS; test: HSV-1 entry, RFP reporter under HSV-1 ICP0 IE promoter in Vero cells; assay type: cell-based, herpes simplex virus type 1; conditions: virions pretreated with 2 μM; 24 hpi
[6] = system: HSV-1 KOS; test: Infectivity of progeny virions produced by treated infected Vero cells, plaque assay; assay type: cell-based, herpes simplex virus type 1
Procedure: Virions produced by cells infected and treated with said compounds after infection should therefore not be as infectious as virions produced by untreated cells. FIG. 16A is a line graph showing the reduction in infectivity of virions produced by cells treated with amphipathic nucleoside derivatives for 24 hours and plotted against drug concentration. Vero cells were infected with HSV-1 KOS at a multiplicity of infection (MOI) of 3 PFU/cell. […] Cells were harvested at 24 hpi and viral infectivity was evaluated by standard plaque assays. Error bars represent ranges of 3 or more experiments. The virions produced in the presence of dUY11 were 8 orders of magnitude less infectious than those produced by untreated cells (FIG. 16A). The experiments were then repeated, but limiting the exposure of the infected cells to dUY11 to only 1 hour, immediately after removing the viral inoculum (FIG. 16B). […] Infected cells were then incubated without drug for 22 h, then the infectivity of the progeny virions was assessed. […] Therefore, dUY11 interacts with pre-existing cellular factors that are incorporated into virions, such as membrane lipids.

[7] = system: HSV-1; test: Release of HSV-1 DNA/virions by infected Vero cells, Southern blot of extracellular viral DNA; assay type: cell-based, herpes simplex virus type 1; conditions: 2 μM, 1, 5, 18, 24 hpi
[8] = system: HSV-1 KOS; test: HSV-1 infectivity plaque assay, pretreated virions, Human Foreskin Fibroblasts; assay type: cell-based, herpes simplex virus type 1; conditions: HFF
Description: FIG. 8 is a line graph showing HSV-1 infectivity plotted against concentration of dUY11. […] As expected, dUY11 treated virions were equally non-infectious for Vero cells or Human Foreskin Fibroblasts.

[9] = system: HSV-1; test: HSV-1 replication, cells treated only after infection with untreated virions; conditions: post-adsorption treatment of cells
Procedure: HSV-1 inocula were incubated at 37° C. for 0 or 5 minutes with 2 μM of dUY11 (left half of each panel) or with DMSO vehicle (right half of each panel). Vero cells were infected with 0.5; 5; 50; 500; 5,000; or 50,000 PFU of treated HSV-1, as indicated in the cartoon (top panel), washed and overlaid with Dulbecco's Modified Eagle Media (DMEM) supplemented with 5% fetal bovine serum (FBS) and 2% methylcellulose (MC).
Tests were performed to determine whether dUY11 preferentially targets the viral envelope or the cell membrane. […] HSV-1 KOS (200 PFU) were incubated with 0, 0.002, 0.007, 0.02, 0.07, 0.2, 0.7, 2, 7, 20 or 70 μM dUY11 for 5 minutes at 37° C. Vero cells were then infected with so-pretreated virions for 1 hour, washed and overlaid with medium supplemented with 5% FBS and 2% MC (▪). Alternatively, untreated inocula were used to infect untreated Vero cells (▴) or Vero cells pretreated at 37° C. for up to 60 minutes with 0, 2, 7, 20 or 70 μM dUY11 (●). Non-pretreated infected cells were then overlayed with medium supplemented with 5% FBS and 2% MC supplemented with 0, 2, 7, 20 or 70 μM dUY11. […] Error bars represent ranges of three or more experiments.

[10] = system: HSV-1; test: High-affinity binding of HSV-1 virions, heparin competition; assay type: cell-based, herpes simplex virus type 1; conditions: 7 μM
Procedure: dUY11 was next evaluated for its ability to affect high-affinity binding. FIG. 12 is a line graph showing competition of HSV-1 binding to cells by increasing concentration of heparin. […] Inocula were cooled on ice, and then diluted (1:10) in ice-cold serum-free media with or without 7 μM dUY11. Following 15 minute adsorption onto Vero cells, unbound virions were washed away. […] Virions stripped away by these washes were then quantified by liquid scintillation. Error bars represent ranges of two experiments. […] Therefore, the amphipathic nucleoside derivatives inhibit a step between high-affinity binding and viral DNA replication.

[11] = system: HSV-1; test: HSV-1 DNA replication, Southern blot of intracellular viral DNA in infected Vero cells; assay type: cell-based, herpes simplex virus type 1; conditions: 2 μM, 5 PFU/cell, 1, 5, 18, 24 hpi
Procedure: To identify whether the amphipathic nucleoside derivatives inhibited either viral DNA replication or viral gene expression, the ability of the amphipathic nucleoside derivatives to inhibit the accumulation of HSV-1 DNA was tested.

[12] = system: Vero cells
[13] = system: HSV-2; test: Mouse vaginal infection with HSV-2 virions exposed to compound; assay type: in vivo, mice
Description: In order to determine whether an amphipathic nucleoside derivative described herein inhibited viral transmission, a model vaginal infection with a sexually transmitted virus, HSV-2, was used. […] All five mice infected with 3×10^3 infectious virions, and three of the mice infected with 10^3, had to be euthanized between days 7 and 9 due to advanced illness (FIGS. 18E and 19A-B).

[14] = system: HSV-2 strain 333; assay type: cell-based, HSV type 2; conditions: virions pretreated 5 minutes at 37° C.; Vero cells; read-out: IC50, infectivity of HSV-2 strain 333
[15] = system: HSV-2 strain 186; assay type: cell-based, HSV type 2; conditions: virions pretreated 5 minutes at 37° C.; Vero cells; read-out: IC50, infectivity of HSV-2 strain 186
[16] = system: SIN virus; assay type: cell-based, Sindbis virus; conditions: virions pretreated 5 minutes at 37° C.; Vero cells; read-out: IC50, infectivity of SIN
[17] = Dispersion and stability in culture medium; assay type: physicochemical
[18] = system: HSV-1 KOS; test: Binding of radiolabeled HSV-1 virions to Vero cells; assay type: cell-based, herpes simplex virus type 1; conditions: 7 μM; adsorption at 4° C. for 1 hour
Procedure: Infectivity was inhibited by pre-treating HSV-1 virions with the amphipathic nucleoside derivatives before infection. These nucleosides may thus inhibit HSV-1 infectivity by, for example, preventing virion binding to cells. Alternatively, they may disrupt extracellular virions (i.e. have virucidal activities). […] The binding of HSV-1 virions pre-treated with dUY11 was assessed. FIG. 11 is a bar graph and photographic images showing HSV-1 binding (A) and infectivity (B). In parallel studies, [35]S-Methionine radiolabeled (approximately 4×10^5 cpm in 2.5×10^5 PFU) (A) or non-radiolabeled HSV-1 KOS (B) were pretreated with no drug (white bar), 7 μM dUY11 (striped bar), or 100 μg/ml heparin (black bar) for 5 minutes at 37° C. The samples were then cooled on ice. Inocula were diluted (1:20, 1:100) in ice-cold serum-free media supplemented with no drug, 7 μM dUY11, or 100 μg/ml heparin. Vero cells were infected with the so-pretreated virions at 4° C. for 1 hour, washed three times with ice-cold serum-free medium and lysed. Bound virions were quantified by liquid scintillation. Error bars represent ranges of three experiments (A).

[19] = Human alphaherpesvirus 1, Vero, Table 1, read-out: IC50 (μM) on infectivity of HSV-1 on Vero cells
[20] = 10^3 or 3×10^3 HSV-2 virions exposed to 70 μM, vaginal infection

O=c1[nH]c(=O)n([C@H]2CC[C@@H](CO)O2)cc1C#Cc1ccc2c3cccc4cccc(c5cccc1c52)c43 [ddUY11, 5-(Perylen-3-ylethynyl)-2′,3′-dideoxyuridine]
IC50 [1, 19]: 0.045 µM | potency compared with dUY11 [1]: approximately as potent as dUY11 | cytotoxicity (in words) [2]: neither were cytotoxic

O=c1[nH]c(=O)n([C@@H]2O[C@H](CO)C(O)C2O)cc1C#Cc1ccc2c3cccc4cccc(c5cccc1c52)c43 (some centres unmarked) [aUY11, 5-(Perylen-3-ylethynyl)-arabino-uridine]
IC50 [1, 19]: 0.075 µM | potency compared with dUY11 [1]: approximately as potent as dUY11 | cytotoxicity (in words) [2]: neither were cytotoxic

O=c1[nH]c(=O)n([C@H]2C[C@H](O)[C@@H](CO)O2)cc1C#Cc1ccc2c3cccc4cccc(c5cccc1c52)c43 [dUY11]
fold higher concentration for cell pretreatment versus virion pretreatment [3]: 270 fold | IC50 [4]: 6 nM | HSV-1 entry (RFP expression in reporter cells) [5]: no detectable fluorescence; also recorded: inhibits HSV-1 entry | IC50 ([6]; cells exposed for only 1 hour): 3900 nM | reduction in infectivity of virions budded from treated cells ([6]; cells exposed for only 1 hour after removing inoculum): 6 orders of magnitude | effect on infectivity of progeny virions (in words) ([6]; cells treated for 24 or only 1 hours): inhibits the infectivity of progeny virions | reduction in infectivity of virions produced by treated cells ([6]; cells treated for 24 hours after infection, up to 2 μM): 8 orders of magnitude | inhibition of release of HSV-1 DNA (extracellular viral DNA) [7]: does not inhibit the release of progeny HSV-1 DNA | infectivity with virions pretreated with 700 nM ([8]; 700 nM): fully inhibited | IC50 ([8]; virions pretreated 5 minutes at 37° C.): 20 nM | time to inhibit HSV-1 infectivity by 50% ([1]; 20 nM (IC50) at 37° C., Vero cells): 220 s | infectivity with virions pretreated with 700 nM ([1]; 700 nM, Vero cells): fully inhibited | effect on viral infectivity, plaque assay ([1]; 2 μM, inocula incubated 0 or 5 min at 37° C.): inhibits viral infectivity | infectivity in parallel to binding study ([1]; 7 μM): did abrogate infectivity | IC50 ([1]; Table 1, read-out: IC50 (μM) on infectivity of HSV-1 on Vero cells): 0.05 µM | maximum inhibition, virion pretreatment ([1]; up to 70 μM): 100% | IC50 ([1]; virions pretreated 5 minutes at 37° C., Vero cells, calculated graphically, read-out: IC50, HSV-1 infectivity): 0.02 µM and 0.025 µM and 0.024 µM | effect on viral replication when added after infection [9]: no effect on viral replication; also recorded: no effect on HSV-1 replication | virucidal activity [10]: not virucidal | block of low- or high-affinity binding ([10]; heparin washes 0 to 1,000 μg/ml): does not block either low- or high-affinity binding; also recorded: does not block high-affinity binding | inhibition of HSV-1 DNA replication (intracellular viral DNA) [11]: does not inhibit HSV-1 DNA replication; also recorded: does not inhibit viral DNA replication at any time tested | cytotoxicity (in words) [12]: non-cytotoxic | mice shedding detectable infectious virus [13, 20]: None of the ten mice | mice showing clinical signs of infection [13, 20]: None of the ten mice | protection of mice from vaginal (genital) infection ([13]; virions exposed to 70 μM): protects mice from genital infection; also recorded: protects from vaginal infection with HSV-2; also recorded: non-infectious to mice | IC50 [14]: 65 nM | safety index (SI) ([2]; 50% cytotoxicity not reached): > 7,500 | IC50 [15]: 49 nM | IC50 [16]: 58 nM | stability in medium ([17]; 150 μM): not stable in medium for long periods | concentration at which homogeneously dispersed in media ([17]; culture media): up to 70,000 nM | inhibition of HSV-1 virion binding to cells [18]: did not inhibit virion binding; also recorded: does not inhibit HSV-1 binding
